Reference: EP0754455A1, “PHARMACEUTICAL COMPOSITIONS BASED ON AMINOMETHYLINDOLES AND THEIR THERAPEUTICAL APPLICATION AS NEUROPROTECTORS IN PARKINSON AND ALZHEIMER DISEASES” (CONSEJO SUPERIOR INVESTIGACIONES CIENTIFICAS (CSIC), priority 1995, dated 1996)
Read-outs that look alike come from different tables or passages of the source.

Tests used:
MAO-A [1] = molecular target: T1, MAO-A (Rattus norvegicus, UniProt P21396); assay: biochemical; assay type: biochemical, Sprague-Dawley rat
T1 construct: human and rat tissue to obtain the isolated forms of monoamine oxidase A and B; from tissue
T1 sequence (P21396 1-526): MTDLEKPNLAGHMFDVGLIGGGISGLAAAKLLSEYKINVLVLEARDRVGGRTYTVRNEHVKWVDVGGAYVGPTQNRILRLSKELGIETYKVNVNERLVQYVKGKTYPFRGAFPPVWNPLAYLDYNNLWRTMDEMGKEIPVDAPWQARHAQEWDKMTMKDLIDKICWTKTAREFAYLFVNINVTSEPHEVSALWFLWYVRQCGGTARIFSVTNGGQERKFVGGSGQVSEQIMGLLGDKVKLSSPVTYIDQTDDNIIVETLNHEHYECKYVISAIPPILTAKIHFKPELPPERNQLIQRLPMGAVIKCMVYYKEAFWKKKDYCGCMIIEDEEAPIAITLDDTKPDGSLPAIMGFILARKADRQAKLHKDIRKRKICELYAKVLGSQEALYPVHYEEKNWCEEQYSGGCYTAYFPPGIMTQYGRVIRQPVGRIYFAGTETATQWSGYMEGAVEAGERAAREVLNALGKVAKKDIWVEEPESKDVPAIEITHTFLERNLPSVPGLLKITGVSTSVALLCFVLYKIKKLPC
Experimental: (§1) The mitochondrial portion of Sprague-Dawley rat was used to determine the MAO-A and MAO-B activity.
(§2) Determinations were made of the comparative MAO-A and MAO-B activity inhibition curves of the various compounds under study at time 0 and 30 min. by measuring the remaining activity to 5-HT and PEA as substrates.

MAO-A [2] = molecular target: T1, MAO-A; assay: Kinetic parameters of suicide-type inhibition, MAO-A; assay type: biochemical, Sprague-Dawley rat; conditions: for K^1cat / K1(10^-3) / K^1cat: MAO-A; for K^1cat / K1(10^-3): inhibition efficacy; for K^1cat: velocity constant for formation of the covalent irreversible complex, ± SEM
Description: Based on the apparent velocity constants of the first order (kapp) obtained for each inhibitor, calculations were made of the K1 and K^1c at (according to the method described by M. Avila et al. 1993, Biochem Pharmac 45, 2231-2237). K1 is the affinity constant of the first stage of the reaction and K1 MAO-A / K1 MAO-B the expression of the selectivity.
(§3) K^1cat is the velocity constant for the formation of the covalent irreversible complex during the second stage of the process. To compare the values of these constants towards the two forms of MAO, we express the inhibition efficacy as the ratio K^1cat/K1. The value of these constants (see Tables 2 and 3), is the result of three different experiments, with their corresponding SEM.

MAO-B [3] = molecular target: T2, MAO-B (Rattus norvegicus, UniProt P19643); assay: Kinetic parameters of suicide-type inhibition, MAO-B (selectivity K1 MAO-A / K1 MAO-B); assay type: biochemical, Sprague-Dawley rat; conditions: selectivity for MAO-B
T2 construct: from tissue; host or cells: Sprague-Dawley rat liver, mitochondrial fraction
T2 sequence (P19643 1-520): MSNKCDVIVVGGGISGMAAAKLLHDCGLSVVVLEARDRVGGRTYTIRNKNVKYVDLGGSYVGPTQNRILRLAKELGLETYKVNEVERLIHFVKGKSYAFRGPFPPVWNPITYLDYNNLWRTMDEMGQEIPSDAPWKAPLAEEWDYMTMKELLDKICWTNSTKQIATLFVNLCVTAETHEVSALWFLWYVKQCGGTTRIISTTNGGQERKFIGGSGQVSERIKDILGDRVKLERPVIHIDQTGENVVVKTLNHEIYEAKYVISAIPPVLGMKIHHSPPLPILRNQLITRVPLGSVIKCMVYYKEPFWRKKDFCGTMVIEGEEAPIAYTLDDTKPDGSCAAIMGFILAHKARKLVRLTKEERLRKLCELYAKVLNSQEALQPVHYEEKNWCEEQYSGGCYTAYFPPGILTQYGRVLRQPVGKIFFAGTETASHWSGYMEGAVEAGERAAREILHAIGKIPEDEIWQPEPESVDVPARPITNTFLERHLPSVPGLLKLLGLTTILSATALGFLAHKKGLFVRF
Description: K1 is the affinity constant of the first stage of the reaction and K1 MAO-A / K1 MAO-B the expression of the selectivity.
as §3

MAO-B [4] = molecular target: T2, MAO-B; assay: MAO-B inhibition, mitochondrial portion of rat (IC50, time dependence, irreversibility), substrate PEA; assay type: biochemical, Sprague-Dawley rat; conditions: MAO-B (lines B..), substrate PEA, rat mitochondria
Experimental: as §1, §2

dopamine carrier = molecular target: T3, dopamine carrier (Homo sapiens, UniProt Q01959); assay: Dopamine carrier inhibition in purified synaptosomes of human caudate; assay type: biochemical
T3 construct: This assay was carried out in purified synaptosomes of human caudate; from tissue; host or cells: post-mortem human caudate, purified synaptosomes
T3 sequence (Q01959 whole entry): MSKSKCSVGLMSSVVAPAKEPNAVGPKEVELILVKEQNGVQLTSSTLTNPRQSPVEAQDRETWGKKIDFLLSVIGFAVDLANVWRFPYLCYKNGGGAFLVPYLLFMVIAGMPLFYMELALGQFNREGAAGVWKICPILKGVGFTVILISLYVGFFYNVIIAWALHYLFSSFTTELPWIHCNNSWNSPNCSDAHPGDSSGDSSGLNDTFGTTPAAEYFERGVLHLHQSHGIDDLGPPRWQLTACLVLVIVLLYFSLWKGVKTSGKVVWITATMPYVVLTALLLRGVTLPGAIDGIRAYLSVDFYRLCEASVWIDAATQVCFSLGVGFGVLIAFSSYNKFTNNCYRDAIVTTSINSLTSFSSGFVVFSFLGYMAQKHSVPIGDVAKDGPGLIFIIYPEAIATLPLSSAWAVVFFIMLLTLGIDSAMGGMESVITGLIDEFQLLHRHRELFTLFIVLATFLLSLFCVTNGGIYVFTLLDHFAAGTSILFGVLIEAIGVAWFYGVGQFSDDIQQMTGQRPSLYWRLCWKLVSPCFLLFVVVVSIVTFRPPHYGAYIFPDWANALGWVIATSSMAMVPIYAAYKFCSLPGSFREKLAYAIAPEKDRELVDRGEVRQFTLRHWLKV
Experimental: This assay was carried out in purified synaptosomes of human caudate obtained using the same method as described by Rodríguez et al. 1987 Biochem Pharmac 36, 974-976.
The studies were carried out with the same inhibitors used in the rat tissue. The dopamine (DA) concentration was 0.1 µM, a value chosen from the kinetic constants obtained.

MAO-A [5] = molecular target: T4, MAO-A (Mus musculus, UniProt Q64133); assay: Ex vivo inhibition of brain MAO-A after i.p. administration; assay type: in vivo, C57/BL mice; conditions: mouse brain homogenate 2 hours after i.p., l-deprenyl 10 mg/Kg, tested compound 4 mg/Kg
T4 construct: the brains homogenised in potassium phosphate buffer 50 mM, pH 7.2; from tissue; host or cells: C57/BL mouse brain homogenate
T4 sequence (Q64133 1-526): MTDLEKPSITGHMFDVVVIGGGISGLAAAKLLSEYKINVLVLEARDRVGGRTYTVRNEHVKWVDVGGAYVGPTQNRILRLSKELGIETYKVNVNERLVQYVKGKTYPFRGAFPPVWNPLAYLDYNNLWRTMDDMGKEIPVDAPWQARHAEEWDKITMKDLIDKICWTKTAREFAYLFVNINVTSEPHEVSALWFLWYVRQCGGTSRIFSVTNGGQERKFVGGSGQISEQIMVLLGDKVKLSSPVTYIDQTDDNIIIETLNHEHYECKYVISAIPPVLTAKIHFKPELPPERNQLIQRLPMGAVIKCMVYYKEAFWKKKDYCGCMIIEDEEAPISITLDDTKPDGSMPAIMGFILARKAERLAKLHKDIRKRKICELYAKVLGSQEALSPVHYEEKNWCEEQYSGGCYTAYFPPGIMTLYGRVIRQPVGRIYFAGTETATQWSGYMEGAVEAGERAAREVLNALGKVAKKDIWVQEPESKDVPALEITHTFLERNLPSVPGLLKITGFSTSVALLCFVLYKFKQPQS
Experimental: The pharmacological assays were carried out on C57/BL mice. These animals are sensitive to the induction of the symptomatology of Parkinson's disease through the action of MPTP.
The animals were sacrificed by decapitation after 2 hours and the brains homogenised in potassium phosphate buffer 50 mM, pH 7.2. Determinations were made of the MAO-A and MAO-B activity in each case using radiometric methods.

[6] = read-out: IC50 30 min., MAO-A (lines A..), substrate 5-HT, 30 min incubation, rat mitochondria
[7] = IC50 30 min., MAO-A (lines A..), substrate 5-HT, 30 min incubation, rat mitochondria
[8] = MAO-A (lines A..), substrate 5-HT, 0 min incubation, rat mitochondria, read-out: IC50 0 min
[9] = MAO-A (A..), affinity constant of the first stage, three experiments ± SEM, read-out: K1
[10] = IC50 30 min., 30 min incubation
[11] = 0 min incubation, read-out: IC50 0 min

| SMILES | IC50 (MAO-A [1]) [µM] | IC50 (MAO-A [1]; [6]) [µM] | Ki (MAO-A [2]) [µM] | IC50 (MAO-A [1]; [7]) [µM] | IC50 (MAO-A [1]; [8]) [µM] | Ki (MAO-A [2]; [9]) [µM] | K^1cat / K1(10^-3) (MAO-A [2]) | K^1cat (MAO-A [2]) [min⁻¹] | K1 MAO-A/K1 MAO-B (MAO-B [3]) | IC50 (MAO-B [4]; [10]) [µM] | IC50 (MAO-B [4]; [11]) [µM] | IC50 (dopamine carrier) [µM] | remaining activity at 4 mg/kg (MAO-A [5]; ip, control = 100%) [%] | MAO-A ACTIVITY (MAO-A [5]; control 485) |
| --- | --- | --- | --- | --- | --- | --- | --- | --- | --- | --- | --- | --- | --- | --- |
| C#CCN(C)Cc1cc2cc(OCc3ccccc3)ccc2n1C [FA-65] | 1.5 | 0.1 | 0.018 | – | – | – | – | – | – | – | – | – | – | – |
| CC#CCN(C)Cc1cc2cc(OCc3ccccc3)ccc2n1C [FA-66] | 1.25 | 0.15 | 0.0054 | – | – | – | – | – | – | – | – | – | – | – |
| C=C=CCN(C)Cc1cc2cc(OCc3ccccc3)ccc2n1C [FA-67] | 2.5 | 0.19 | 0.0265 | – | – | – | – | – | – | – | – | – | – | – |
| CC#CCNCc1cc2cc(OCc3ccccc3)ccc2[nH]1 [FA-74] | – | – | – | 10 | 63 | 5.25 | 0.04 10^-3 | 0.21 ± 0.1 | 276.4 | 0.25 | 1.58 | – | – | – |
| C=C=CCNCc1cc2cc(OCc3ccccc3)ccc2[nH]1 [FA-75] | – | – | – | 0.25 | 3.98 | 0.347 | 0.47 10^-3 | 0.16 ± 0.02 | 63.0 | 0.025 | 0.398 | – | – | – |
| CC#CCN(CC#CC)Cc1cc2cc(OCc3ccccc3)ccc2[nH]1 [FA-77] | – | – | – | 5 | 39 | 6.52 | 0.014 10^-3 | 0.09 ± 0.002 | 41.5 | 0.01 | 25 | – | – | – |
| C=C=CCN(CC=C=C)Cc1cc2cc(OCc3ccccc3)ccc2[nH]1 [FA-78] | – | – | – | 6.3 | 120 | 14.1 | 0.014 10^-3 | 0.2 ± 0.04 | 913.6 | 0.19 | 3.1 | – | – | – |
| C#CCN(C)Cc1cc2cc(OCc3ccccc3)ccc2[nH]1 [FA-87] | 0.63 | 0.00079 | 0.0545 | – | – | – | – | – | – | – | – | – | – | – |
| CC#CCN(C)Cc1cc2cc(OCc3ccccc3)ccc2[nH]1 [FA-88] | 1.58 | 0.15 | 0.0139 | – | – | – | – | 0.04 ± 0.001 | – | – | – | – | – | – |
| C=C=CCNCc1cc2cc(OCc3ccccc3)ccc2n1C [FA-97] | – | – | – | 0.025 | 0.199 | 0.0188 | 6.0 10^-3 | 0.12 ± 0.002 | – | 0.012 | 0.79 | – | – | – |
| C#CCN(CC#C)Cc1cc2cc(OCc3ccccc3)ccc2n1C [FA-98] | – | – | – | 31 | – | 0.0198 | 5.6 10^-3 | 0.11 ± 0.01 | 873.5 | 2.5 | 19.4 | – | – | – |
| C#CCN(C)[C@H](C)Cc1ccccc1 [deprenyl, reference compound] | – | – | – | – | – | – | – | 0.049 ± 0.01 | – | – | – | 0.1 | 52.5 | 255 |
